For the assay, the system named is Mesodermal stem cells C2C12. Nature of the assay: Calcification of cells by bone regeneration materials (calcein fluorescence). In kind it is cell-based. The note with it: C2C12 cultured for 14 days in medium for hard tissue formation containing calcein; compared with material containing no peptide. The method, then:
Mesodermal stem cells C2C12 (America Type Culture Collection, CRL-1772) were cultured for 14 days, while adding the injectable bone regeneration materials prepared in Example 1 to a medium for hard tissue formation, containing calcein (fluorescent substance for calcium). The cultured osteoblasts were fixed with 2% glutaraldehyde solution. The fixed cells were treated with 1% triton X-100, and then nuclei were strained with DAPI (blue) and actins were stained with Rhodamine phalloidin (Molecular Probe, red), thus staning the cultured cells.

As to “YGLRSKSKKFRRPDIQYPDAT (listed as Homo sapiens) [SEQ ID NO: 6]”, the “calcification (calcium fluorescence deposited on extracellular matrixes)” value is reported as “promotes calcification of cells”.

These data come from patent US8546529B2, “Injectable bone regeneration gel containing bone formation enhancing peptide” (Nano Intelligent Biomedical Engineering Corporation Co., …, priority 2007, dated 2013).
